Data as given in US20140113931A1, “SUBSTITUTED PICOLINAMIDE KINASE INHIBITORS” (Portola Pharmaceuticals, Inc., priority 2012, published 2014).

Molecular target: T1, full length active recombinant SYK enzyme (Homo sapiens, UniProt P43405)
T1 construct: full length active recombinant SYK enzyme (Millipore, CA); purchased Millipore, CA
Assay: Inhibition of Syk tyrosine phosphorylation activity (LANCE TR-FRET kinase assay)
Type: biochemical
Settings: 1 nM active SYK enzyme, 550 nM SYK-substrate, 100 μM ATP, 1 hour at room temperature
Description: The in vitro and in vivo human Syk activities of the inventive compounds can be determined by various procedures known in the art, such as a test for their ability to inhibit the activity of human plasma Syk. […] The IC50 value is the concentration (in nM) of the compound required to provide 50% inhibition of human Syk proteolytic activity.
An in vitro assay for detecting and measuring inhibition activity against Syk is as follows:
SYK tyrosine phosphorylation activity is measured using the LANCE™ Technology developed by Perkin Elmer Life and Analytical Sciences (Boston, Mass.). LANCE™ refers to homogeneous time resolved fluorometry applications using techniques such as time-resolved fluorescence resonance energy transfer assay (TR-FRET) (see generally for procedures in Perkin Elmer Application Note—How to Optimize a Tyrosine Kinase Assay Using Time Resolved Fluorescence-Based LANCE Detection, wwww.perkinelmer.com/lifesciences). The assay principle involves detection of a phosphorylated substrate using energy transfer from a phosphospecific europium-labeled antibody to streptavidin-allophycocyanin as an acceptor.
Molecules are reconstituted in 30% DMSO and serially diluted 1:3 with the final dilution containing DMSO in the absence of the candidate molecule. The final DMSO concentration in the assay is 3%. Kinase assays are performed as a two part reaction. The first reaction is a kinase reaction and which comprises of a candidate molecule, full length active recombinant SYK enzyme (Millipore, CA) and biotin-labeled SYK-specific substrate biotin-DEEDYESP-OH. The second reaction involves termination of the kinase reaction and the simultaneous addition of the detection reagents-europium-labeled anti-phosphotyrosine reagent (Eu-W1024-PY100, Perkin Elmer, Boston, Mass.) and Streptavidin-Allophycocyanin detection reagent (SA-APC, Prozyme, CA). The kinase reaction is performed in a black U-bottom 96-well microtitre plate. The final reaction volume is 50 μL and contains a final concentration of 1 nM active SYK enzyme, 550 nM SYK-substrate, and 100 μM ATP diluted in a buffer containing 50 mM Tris pH 7.5, 5 mM MgCl2, and 1 mM DTT. The reaction is allowed to proceed for 1 hour at room temperature. The quench buffer contains 100 mM Tris pH 7.5, 300 mM NaCl2, 20 mM EDTA, 0.02% Brij35, and 0.5% BSA. The detection reagents are added to the reaction mixture at the following dilutions-1:500 for Eu-W1024-PY100 and 1:250 for SA-APC. The kinase reaction is terminated by the addition of 50 μL quench buffer containing the detection reagents. The detection is allowed to proceed for 1 hr at room temperature. Detection of the phosphorlated substrate in the absence and presence of inhibitors is measured in the TR-FRET instrument, Analyst HT (Molecular Probes, Sunnyvale, Calif.) and the condition for measurements are set up using CriterionHost Release 2.0 (Molecular Probes, Sunnyvale, Calif.). The settings used are a follows: excitation 360 nm, emission 665-7.5 nm, beam splitter 350 nm 50/50, flash 100 pulses, delay 60 us, integration 400 us, z-height 2 mm. Inhibition of SYK-tyrosine kinase activity is calculated as the maximum response observed in the presence of inhibitor, compared to that in the absence of inhibitor. IC50s were derived by non-linear regression analysis.

Row | Compound | IC50 [µM]
1 | CCc1cc(Nc2cc(N[C@@H]3CCCC[C@@H]3N)cnc2C(N)=O)on1 [Example 37, 5-((1R,2S)-2-aminocyclohexylamino)-3-(3-ethylisoxazol-5-ylamino)picolinamide] | 0.01 to 0.1
2 | CC(C)(C)[C@@H](Nc1cnc(C(N)=O)c(Nc2cc(C3CC3)ns2)c1)C(N)=O [Example 39, (R)-5-(1-amino-3,3-dimethyl-1-oxobutan-2-ylamino)-3-(3-cyclopropylisothiazol-5-ylamino)picolinamide] | 0.01 to 0.1
3 | CC(C)(C)C[C@@H](Nc1cnc(C(N)=O)c(Nc2cc(F)c3ncccc3c2)c1)C(N)=O [Example 40, (R)-5-(1-amino-4,4-dimethyl-1-oxopentan-2-ylamino)-3-(8-fluoroquinolin-6-ylamino)picolinamide] | 0.01 to 0.1
4 | CC(C)(C)C[C@@H](Nc1cnc(C(N)=O)c(Nc2ccc3cccnc3c2)c1)C(N)=O [Example 41, (R)-5-(1-amino-4,4-dimethyl-1-oxopentan-2-ylamino)-3-(quinolin-7-ylamino)picolinamide] | 0.001 to 0.01
5 | CC(C)C[C@@H](Nc1cnc(C(N)=O)c(Nc2cc(-c3ccncc3)no2)c1)C(N)=O [Example 47, (R)-5-(1-amino-4-methyl-1-oxopentan-2-ylamino)-3-(3-(pyridin-4-yl)isoxazol-5-ylamino)picolinamide] | 0.001 to 0.01
6 | NC(=O)c1ncc(N[C@@H]2CCCC[C@@H]2N)cc1Nc1cc(-c2ccncc2)no1 [Example 49, 5-((1R,2S)-2-aminocyclohexylamino)-3-(3-(pyridin-4-yl)isoxazol-5-ylamino)picolinamide] | 0.001 to 0.01
7 | NC(=O)c1ncc(N[C@@H]2CCCC[C@@H]2N)cc1Nc1cc(-c2cccnc2)no1 [Example 50, 5-((1R,2S)-2-aminocyclohexylamino)-3-(3-(pyridin-3-yl)isoxazol-5-ylamino)picolinamide] | 0.01 to 0.1
8 | NC(=O)c1ncc(N[C@H](CC(F)(F)F)C(N)=O)cc1Nc1ccc2cccnc2c1 [Example 51, (R)-5-(1-amino-4,4,4-trifluoro-1-oxobutan-2-ylamino)-3-(quinolin-7-ylamino)picolinamide] | 0.001 to 0.01
9 | NC(=O)c1ncc(N[C@@H]2CCOC[C@@H]2N)cc1Nc1cc(-c2ccncc2)no1 [Example 52, 5-((3R,4R)-3-aminotetrahydro-2H-pyran-4-ylamino)-3-(3-(pyridin-4-yl)isoxazol-5-ylamino)picolinamide] | 0.01 to 0.1
10 | NC(=O)c1ncc(N[C@@H]2CCOC[C@@H]2N)cc1Nc1cc(-c2cccnc2)no1 [Example 53, 5-((3R,4R)-3-aminotetrahydro-2H-pyran-4-ylamino)-3-(3-(pyridin-3-yl)isoxazol-5-ylamino)picolinamide] | 0.01 to 0.1
11 | CC[C@@H](Nc1cnc(C(N)=O)c(Nc2cnc3cccnc3c2)c1)C(N)=O [Example 54, (R)-3-(1,5-naphthyridin-3-ylamino)-5-(1-amino-1-oxobutan-2-ylamino)picolinamide] | 0.1 to 1
12 | NC(=O)c1ncc(N[C@@H]2CCCC[C@@H]2N)cc1Nc1cccc(-c2ncco2)c1 [Example 55, 5-(((1R,2S)-2-aminocyclohexyl)amino)-3-((3-(oxazol-2-yl)phenyl)amino)picolinamide] | 0.01 to 0.1
13 | NC(=O)c1ncc(N[C@@H]2CCCC[C@@H]2N)cc1Nc1cncs1 [Example 56, 5-(((1R,2S)-2-aminocyclohexyl)amino)-3-(thiazol-5-ylamino)picolinamide] | > 1

Continued, values first:

Row | IC50 [µM] | Compound
14 | 0.001 to 0.01 | CC[C@@H](Nc1cnc(C(N)=O)c(Nc2cc(C3CC3)ns2)c1)C(N)=O [Example 38, (R)-5-(1-amino-1-oxobutan-2-ylamino)-3-(3-cyclopropylisothiazol-5-ylamino)picolinamide]
15 | 0.01 to 0.1 | Cc1cc(Nc2cc(N[C@@H](C(N)=O)c3ccccc3)cnc2C(N)=O)sn1 [Example 42, (R)-5-(2-amino-2-oxo-1-phenylethylamino)-3-(3-methylisothiazol-5-ylamino)picolinamide]
16 | 0.01 to 0.1 | Cc1cc(Nc2cc(N[C@H](C)C(N)=O)cnc2C(N)=O)sn1 [Example 43, (R)-5-(1-amino-1-oxopropan-2-ylamino)-3-(3-methylisothiazol-5-ylamino)picolinamide]
17 | < 0.001 | Cc1cc(Nc2cc(N[C@H](CC(F)(F)F)C(N)=O)cnc2C(N)=O)sn1 [Example 44, (R)-5-(1-amino-4,4,4-trifluoro-1-oxobutan-2-ylamino)-3-(3-methylisothiazol-5-ylamino)picolinamide]
18 | 0.01 to 0.1 | Cc1cc(Nc2cc(N[C@H](CCS(C)(=O)=O)C(N)=O)cnc2C(N)=O)sn1 [Example 45, (R)-5-(1-amino-4-(methylsulfonyl)-1-oxobutan-2-ylamino)-3-(3-methylisothiazol-5-ylamino)picolinamide]
19 | 0.01 to 0.1 | COC[C@@H](Nc1cnc(C(N)=O)c(Nc2cc(C)ns2)c1)C(N)=O [Example 48, (R)-5-(1-amino-3-methoxy-1-oxopropan-2-ylamino)-3-(3-methylisothiazol-5-ylamino)picolinamide]
